How the values were obtained:
[1] = tested on: beating neonatal CMCs; test: Uptake of dual-labeled CTP by beating neonatal cardiomyocytes (confocal microscopy); assay type: cell-based, mouse; conditions: Digoxin 100 nM; 20 mM K+; dual-labeled CTP 25 μM; n = 3; p-value < 0.001
Experimental: To further study the CTP’s mechanism of transduction, CMCs were isolated from 1–3-day old mouse pups using published protocols. Beating CMCs were incubated with the dual-labeled CTP (25 μM) under normokalemic (5 mM) and hyperkalemic (20 mM) conditions. […] The degree of transduction of these cells was quantified using confocal microscopy. […] Rhodamine with an ester link was used as a negative control.

[2] = tested on: wild-type CD1 mice; test: Cardiac targeting peptide imaging studies (microSPECT/CT and dynamic planar imaging); assay type: in vivo, mouse; conditions: 1-5 mCi injected; dual modality microSPECT/CT
Experimental: Cardiac targeting peptide was synthesized as detailed above, with HYNIC conjugated to the N-terminus and labeled with ^99mTc in a manner that was analogous to that described previously. The desired ^99mTc-HYNIC-CTP was purified from the crude reaction mixture using solid-phase extraction methods. The radiochemical purity of the final product was determined using reverse-phase HPLC methods.
Wild-type, 6–8 week old, CD1 mice (~25 g) were injected with 1–5 mCi of ^99mTc Sestamibi or ^99mTc-HYNIC-CTP, and was imaging performed immediately post-injection and at various time points using a Siemens Inveon dual-modality single photon emission computerized tomography/computerized tomography (SPECT/CT) with 5-MWB-1.0 collimators (Siemens Corporation, Washington, DC, USA). The images were resliced for a coronal view and they were Z-stack summed. Analysis of the distribution of the radioisotope was performed using ImageJ software. Measurements were taken by selecting a region of interest at the 0 h time point, applying the same region at different time points for dynamic time course studies. All counts were corrected for the radioactive decay of ^99mTc. For a comparison of dynamic planar images, the highest count in each organ (heart, kidney, and bladder) was set at 100%, and the counts at other time-points plotted as a percentage of that count.

[3] = tested on: human iPSC-derived beating cardiomyocytes (CMCs); test: Transduction of human iPSC-derived cardiomyocytes (confocal imaging); assay type: cell-based; conditions: 10 μM, 30 min, 37 °C; washed 3x with PBS; confocal microscopy; Supplemental Figure 5
Experimental: All protocols involving human tissue samples were approved by the University of Pittsburgh Institutional Review Board (No. PRO09090021). […] After the incubation period, cells were washed, and live confocal imaging was performed immediately.

[4] = biological target: T1, transferrin receptor (Rattus norvegicus, UniProt Q99376); test: LRC-TriCEPs ligand-receptor capture on H9C2 cells, mass spectrometry (transferrin positive control); assay type: binding; conditions: TriCEPS-transferrin conjugate on H9C2 cells; triplicate
T1 construct: endogenous in cells; host or cells: H9C2 rat cardiomyoblast cells
T1 sequence (Q99376 whole entry): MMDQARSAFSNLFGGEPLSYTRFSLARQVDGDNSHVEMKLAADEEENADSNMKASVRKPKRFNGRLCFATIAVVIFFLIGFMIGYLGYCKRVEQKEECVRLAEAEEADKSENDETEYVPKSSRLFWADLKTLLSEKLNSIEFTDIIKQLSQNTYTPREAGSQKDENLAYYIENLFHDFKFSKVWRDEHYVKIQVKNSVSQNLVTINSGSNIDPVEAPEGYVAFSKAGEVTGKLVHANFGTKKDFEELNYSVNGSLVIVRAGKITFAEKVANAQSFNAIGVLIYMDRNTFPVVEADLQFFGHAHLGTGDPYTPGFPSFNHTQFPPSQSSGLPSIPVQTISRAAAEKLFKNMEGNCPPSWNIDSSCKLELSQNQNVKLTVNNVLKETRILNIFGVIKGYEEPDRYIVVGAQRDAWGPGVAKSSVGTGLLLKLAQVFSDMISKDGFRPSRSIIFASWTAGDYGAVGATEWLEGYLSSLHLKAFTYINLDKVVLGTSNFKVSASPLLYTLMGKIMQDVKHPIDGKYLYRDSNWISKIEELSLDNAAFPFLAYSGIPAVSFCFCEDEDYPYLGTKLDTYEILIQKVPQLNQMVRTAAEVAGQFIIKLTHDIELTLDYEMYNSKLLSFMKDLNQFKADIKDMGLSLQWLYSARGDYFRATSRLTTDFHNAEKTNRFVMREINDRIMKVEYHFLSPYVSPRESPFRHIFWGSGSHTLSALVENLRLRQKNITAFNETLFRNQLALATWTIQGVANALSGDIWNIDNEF
From the text: To identify a possible binding partner for CTP, we utilized LRC-TriCEPs technology a service provided by Dualsystems Biotech (Zurich, Switzerland). This methodology relies on TriCEPs™, a trifunctional chemoproteomics reagent, containing (1) a N-hydroxysuccinimide (NHS) ester for attachment to the ligand, (2) a protected hydrazine function for capturing the interacting receptor, and (3) a function for the purification of the ligand-receptor complex. Rat cardiomyoblast cell line H9C2 cells were grown in Dulbecco’s Modified Eagle’s Medium: Nutrient Mixture F-12 (DMEM/F12) (Gibco, Gaithersburg, MD, USA; cat #11039) medium supplemented with 10% fetal bovine serum and maintained at ≤70% confluence. A pretest was performed to identify the binding conditions of the TriCEPS-CTP conjugate on H9C2 cells at varying temperatures, times of incubation, and pH, with successful labeling being analyzed by fluorescence-activated cell sorting (FACs). The LRC-TriCEPS experiment was performed with TriCEP-CTP, TriCEPS-transferrin, and TriCEPS-glycine conjugates, each in triplicate. After the incubation period, cells were lazed and purified using solid-state chromatography, and identified using mass spectrometry. […]

Question: `C[C@H]1O[C@@H](O[C@H]2[C@@H](O)C[C@H](O[C@H]3[C@@H](O)C[C@H](O[C@H]4CC[C@@]5(C)[C@H](CC[C@@H]6[C@@H]5C[C@@H](O)[C@]5(C)[C@@H](C7=CC(=O)OC7)CC[C@]65O)C4)O[C@@H]3C)O[C@@H]2C)C[C@H](O)[C@@H]1O` [Digoxin] was tested. Which “effect of pre-incubation on the hyperkalemia-induced increase in CTP uptake” value [1] did it give?
Answer: significantly abrogated

Question: Which “uptake by the heart (SPECT/CT)” value [2] does the source give for `[C-]#[N+]CC(C)(C)OC.[C-]#[N+]CC(C)(C)OC.[C-]#[N+]CC(C)(C)OC.[C-]#[N+]CC(C)(C)OC.[C-]#[N+]CC(C)(C)OC.[C-]#[N+]CC(C)(C)OC.[Tc]` [^99mTc Sestamibi] here?
Answer: cardiac uptake

Question: And the “uptake in the liver or gut (for Sestamibi also kidneys)” value [2]?
Answer: significant uptake

Question: H-STLMKFCYVEQN-OH [RAN] was tested. Which “uptake by human iPSC-derived CMCs” value [3] did it give?
Answer: some background binding to the gel matrix

Question: How did the “fold increase of transferrin receptor in the positive control over CTP” value [4] turn out when “transferrin: positive control ligand in the LRC-TriCEPS experiment” was run?
Answer: ~5 fold

— PMC6315548, “Cardiac Targeting Peptide, a Novel Cardiac Vector: Studies in Bio-Distribution, Imaging Application, and Mechanism of Transduction” (Biomolecules, 2018)
